In series [1] the test system is Vibrio parahaemolyticus ALN-0312. To be noted: 48 h.
The test system of series [2] is Blautia coccoides ATCC 29236. The following applies: ATCC 29236, 48 h.
For series [3], the system named is Enterococcus faecium L1. The following applies: L1, 48 h.
The format of series [4] is in vitro ADME. The procedure: The dynamic GI TIM-1 Model (TNO Nutrition and Food Research Institute, Zeist, the Netherlands) described previously by was used for evaluation of peptide digestibility. Gastric pH began at 4.5 and decreased gradually to 3.6 after 20 min, 2.7 after 40 min and 2.0 after 60 min of digestion by injecting 0.5 mol/L HCl, finally reaching 1.7 after 120 min. The pH of the duodenal, jejunal and ileal compartments was adjusted to 6, 6.8 and 7.2, respectively, by injecting 0.5 mol/L sodium bicarbonate solution. Gastric secretions consisted of pepsin (0.163 mg/mL) from porcine gastric mucosa (EC 3.4.23.1; Sigma-Aldrich Canada Ltd., Oakville, ON, Canada) and lipase (0.133 mg/mL) from Rhizopus oryzae (EC 3.1.1.3; Amano Pharmaceuticals, Nagoya, Japan), both in an electrolyte solution (NaCl, 6.2 g/L; KCl, 2.2 g/L; CaCl2, 0.3 g/L; NaHCO3, 1.5 g/L) delivered at a flow rate of 0.25 mL/min. […]
To check the digestibility of the synthetic GAPDH-related derived peptide, TIM samples were separated by SPE-C18 before analysis by FPLC with ionic exchange column (IEX). […] The absorbance was recorded at 214 nm and collected fractions were screened for sequence peptides by LC-MS/MS analysis as described above.

In series [5] the test system is Bacillus megaterium B301. To be noted: Bacillus B301, 48 h.
For series [6], the system named is Listeria monocytogenes ATCC 15313. To be noted: ATCC 15313, 48 h.
Series [7] has as its system Listeria ivanovii ATCC 19119. The following applies: ATCC 19119, 48 h.
Series [8] relates to Micrococcus luteus 272. The series can be described thus: MIC, broth microdilution. The format is cell-based. To be noted: two-fold dilution series from 1.050 mM stock in Mueller-Hinton Broth or Brucella Broth; 5.10^5 CFU/mL; visible growth after 24 or 48 h. A general note: Broth dilution looks for growth in wells or tubes with falling amounts of substance.
Series [9] concerns Bifidobacterium infantis ATCC 15697. To be noted: ATCC 15697, 48 h.
Series [10] deals with Enterococcus faecalis ATCC 29212. To be noted: ATCC 29212, 48 h.
In series [11] the test system is Staphylococcus aureus ATCC 25923. To be noted: ATCC 25923, 48 h.
Series [12] concerns Bacteroides thetaiotaomicron ATCC 29741. The following applies: two-fold dilution series from 1.050 mM stock in Mueller-Hinton Broth or Brucella Broth; 5.10^5 CFU/mL; visible growth after 24 or 48 h.
The subject of series [13] is Escherichia coli ATCC 25922. The following applies: ATCC 25922, 48 h.
Series [14] relates to Lactobacillus acidophilus ATCC 4356. The series can be described thus: MIC, broth microdilution. The format is cell-based. The following applies: two-fold dilution series from 1.050 mM stock in Mueller-Hinton Broth or Brucella Broth; 5.10^5 CFU/mL; visible growth after 24 or 48 h.
Series [15] deals with Pseudomonas aeruginosa ATCC 27853. To be noted: ATCC 27853, 48 h.
For series [16], the system named is gastric pepsin. To be noted: upper gastrointestinal conditions; cited from earlier work. The text has this: Food additives such as AMPs must be safe for the human microbiota and the environment. Consequently, knowing the digestibility of AMPs in the human gastrointestinal tract is critical and should not be underestimated. The TIM-1 model used to evaluate the stability of the synthetic peptide simulated the major GI stress conditions, such as gastric acid environment, excretion of proteolytic enzymes and bile salts, and peristaltic movements.

No end group written: not given here.

Consider KVEIVAINDPFIDL [AMGAP], for which the MIC (commonly the lowest concentration that inhibits growth of the organism) in series [1] was above 1050 µM; in [2], above 1050 µM; in series [3], above 1050 µM; in [5] it was above 1050 µM; in series [6], 131 µM; in [7] it was 131 µM. Moreover, the MIC in [8] is 263 µM; in series [9], above 1050 µM; in [10] it was above 1050 µM; in series [11] it was above 1050 µM; in [12] it was 263 µM; in [13], above 1050 µM. Besides, the MIC was 263 µM in series [14] and above 1050 µM in [15]. Further, the “Proportion of intact synthetic peptide in the effluent fraction” value in series [4] was determined as 2%. Also, the “Sensitivity to the digestive process” value in [4] (pH 2.7) is reported as “sensitive”.

Consider “pediocin PA-1: pediocin PA-1, compared for stability under upper gastrointestinal conditions (KYYGNGVTCGKHSCSVDWGKATTCIINNGAMAWATGGHQGNHKC; ends and bridges not checked; cysteine pairing not given here; UniProt P29430 19-62, looked up)”, for which the “Stability with gastric pepsin combined with low pH” value in series [16] is listed as “reduced its stability”.

(Values after article PMC6669513, “Identification of A Novel Antibacterial Peptide from Atlantic Mackerel belonging to the GAPDH-Related Antimicrobial Family and Its In Vitro Digestibility” (Marine Drugs, 2019).)
